Counter-ions that a name gives are not always drawn.
Experiments:
[1] = tested on: Hela human cervical carcinoma; assay: In vitro inhibition rate to tumor cells (MTT), Hela; format: cell-based; conditions: 50 μg/ml
Description: (§1) (1) Single cell suspension was seeded into 96-well plates (×3) (the cells was diluted in the PRMI-1640 minimum medium to 3×10^4 cells/ml, […] diluted cells/well). […] The experiments were performed in quadruplicate.
(§2) (2) The medium was removed. Solutions of the anti-tumor agents (15 compounds) were prepared in a freshly prepared medium at the concentrations indicated in the following Table. […] of the solution was added into each well. Incubation was continued for 48 hours.
(§3) (3) […] of 2 mg/ml MTT was added into each well, and incubated for 4 hours.
(§4) (4) The medium was removed from the well. The microplates were swiftly turned down to throw-off the medium. […] DMSO was added into each well, and vortexed at room temperature for 10 minutes.
(§5) (5) OD value (λ=570 nm) was measured with an Enzyme-Linked Detector.
(§6) (6) The inhibition rates (IR) of cell growth were respectively calculated based on the following equation: IR(%)=[1−(average OD of the experimental group/average OD of the control group)]×100%

[2] = tested on: Bel-7402 human hepatic carcinoma; assay: In vitro inhibition rate to tumor cells (MTT), Bel-7402; format: cell-based; conditions: 50 μg/ml
Description: as §1, §2, §3, §4, §5, §6

293 cells = assay: Cell status of 293 cells treated with sample alone (herpes virus screening)
[3] = tested on: A-549 human lung adenocarcinoma; assay: In vitro inhibition rate to tumor cells (MTT), A-549; format: cell-based; conditions: 50 μg/ml
Description: as §1, §2, §3, §4, §5, §6

[4] = tested on: MCF-7 human mammary adenocarcinoma; assay: In vitro inhibition rate to tumor cells (MTT), MCF-7; format: cell-based; conditions: 50 μg/ml
Description: as §1, §2, §3, §4, §5, §6

[5] = tested on: SMMC-7721 human hepatic carcinoma; assay: In vitro inhibition rate to tumor cells (MTT), SMMC-7721; format: cell-based; conditions: 50 μg/ml
Description: as §1, §2, §3, §4, §5, §6

[6] = tested on: LLC mouse Lewis lung carcinoma; assay: In vitro inhibition rate to tumor cells (MTT), LLC; format: cell-based; conditions: 50 μg/ml
Description: as §1, §2, §3, §4, §5, §6

[7] = tested on: HL-60 human promyelocytic leukemia; assay: In vitro inhibition rate to tumor cells (MTT), HL-60; format: cell-based; conditions: 50 μg/ml
Description: as §1, §2, §3, §4, §5, §6

[8] = tested on: U-937 human histocytic lymphoma; assay: In vitro inhibition rate to tumor cells (MTT), U-937; format: cell-based; conditions: 50 μg/ml
Description: as §1, §2, §3, §4, §5, §6

Hepatitis B virus (HBV) = format: cell-based
HepG2 cells = assay: Cell status of HepG2 cells treated with sample (HBV screening); format: cell-based; conditions: 200 μg/ml, HepG2, four days after infection
Description: 1.5 Screening for the agents: The HepG2 cells were counted and 1.5×10^4 cells/well were seeded into a 96-well plate. After incubation overnight in an atmosphere of CO2 at 37° C., each of the experimental samples in a given concentration was added to the cells. After incubation at 37 °C for 24 hrs, the HepG2 treated with the samples were infected with vAcGFPHBVc of 100 MOI. A negative control and a positive control were also included. Four days after infection, the growth of the cells were observed, and the HBV e antigen in the supernatant was measured with the HBV e antigen diagnostic kit.

[9] = Table 2 (repeated screening), hydrochloride

SMILES | inhibition rate, Results (%) Hela ([1]; Table 1) | inhibition rate, Results (%) Hela ([1]; Table 2 (repeated screening)) | inhibition rate, Results (%) Bel-7402 ([2]; Table 1) | inhibition rate, Results (%) Bel-7402 ([2]; Table 2 (repeated screening)) | inhibition rate, Results (%) A-549 ([3]; Table 1) | inhibition rate, Results (%) A-549 ([3]; Table 2 (repeated screening)) | inhibition rate, Results (%) MCF-7 ([4]; Table 1) | inhibition rate, Results (%) MCF-7 ([4]; Table 2 (repeated screening)) | inhibition rate, Results (%) SMMC-7721 ([5]; Table 1) | inhibition rate, Results (%) SMMC-7721 ([5]; Table 2 (repeated screening)) | inhibition rate, Results (%) LLC ([6]; Table 1) | inhibition rate, Results (%) LLC ([6]; Table 2 (repeated screening)) | inhibition rate, Results (%) HL-60 ([7]; Table 1) | inhibition rate, Results (%) HL-60 ([7]; Table 2 (repeated screening)) | inhibition rate, Results (%) U-937 ([8]; Table 1) | inhibition rate, Results (%) U-937 ([8]; Table 2 (repeated screening)) | other results
CC(C)C1CC23OC1(O)CC(C)(N1CCNCC1)C2CCC3C (stereo not drawn) [Compound 43, Curcumol piperazine without double bond] | 62.13% | 59.66% | 9.15% | −4.98% | 13.39% | 11.24% | 43.21% | 41.94% | −10.12% | −8.98% | −2.06% | −11.23% | 2.56% | 2.00% | 16.32% | 12.30% | Cytopathy and cell status, Sample (293 cells; 50 μg/ml, 293 cells without virus, 12 hrs): Good
CC(C)C1CC23OC1(O)CC(=CO[N+](=O)[O-])C2CCC3C (stereo not drawn) [Compound 19, Curcumol mononitrate] | 55.67% | 50.27% | 4.32% | 8.95% | 2.51% | 3.10% | 12.6% | 0.16% | 23.01% | 12.301% | −15.52% | −16.00% | 54.03% | 55.98% | 50.97% | 42.23% | Cytopathy and cell status, Sample (293 cells; 200 μg/ml, 24 hrs): Apoptotic
CC(C)C1CC23OC1(O)C/C(=C\NC(C)(C)C)C2CCC3C (stereo not drawn) [Compound 16, Curcumol t-butyl amine hydrochloride] | – | – | – | – | – | – | – | – | −2.50% | – | – | – | – | – | – | – | inhibition rate, Results (%) Hela ([1]; Table 1, hydrochloride): 68.99%; inhibition rate, Results (%) Hela [1, 9]: 70.32%; inhibition rate, Results (%) Bel-7402 ([2]; Table 1, hydrochloride): 1.23%; inhibition rate, Results (%) Bel-7402 [2, 9]: 8.99%; inhibition rate, Results (%) A-549 ([3]; Table 1, hydrochloride): 6.01%; inhibition rate, Results (%) A-549 [3, 9]: 10.19%; inhibition rate, Results (%) MCF-7 ([4]; Table 1, hydrochloride): 54.89%; inhibition rate, Results (%) MCF-7 [4, 9]: 50.32%; inhibition rate, Results (%) SMMC-7721 [5, 9]: 2.63%; inhibition rate, Results (%) LLC ([6]; Table 1, hydrochloride): 1.13%; inhibition rate, Results (%) LLC [6, 9]: 0.22%; (Value of the positive control - Measured Value) Value of the positive control × 100% (Hepatitis B virus (HBV); 200 μg/ml, decrease of HBeAg relative to positive control): 73.81%; OD450 of HBeAg (Hepatitis B virus (HBV); 200 μg/ml, supernatant four days after infection, positive control 1.917, negative 0.057): 0.502; activity against HBV (in words) (Hepatitis B virus (HBV); primary screening, HBV e antigen, HepG2, 13 samples): had the activity against HBV; inhibition rate, Results (%) HL-60 ([7]; Table 1, hydrochloride): 2.31%; inhibition rate, Results (%) HL-60 [7, 9]: 15.00%; inhibition rate, Results (%) U-937 ([8]; Table 1, hydrochloride): 82.56%; inhibition rate, Results (%) U-937 [8, 9]: 80.12%; Cell status (HepG2 cells): Normal
